Experimental data from patent US20200216837A1, “DRUG-TARGET IDENTIFICATION BY RAPID SELECTION OF DRUG RESISTANCE MUTATIONS” (KATHOLIEKE UNIVERSITEIT LEUVEN, priority 2016, published 2020).

How the values were obtained:
HAP1 cells = assay: Cell viability assay of wild-type versus mutagenized drug-resistant cells; assay type: cell-based, human; conditions: for Drug sensitivity of HDR-edited cells carrying NAMPT mutations: NAMPT mutations reinstalled in native locus of parental cells by CRISPR-induced HDR; for Drug sensitivity of surviving colonies after tiling library transduction and drug selection: HAP1 Cas9 cells, FDA_target subpool B with bortezomib 14 days, or investigational library D with KPT-9274; for Drug sensitivity of colonies after Cas9/sgRNA targeting of the resistance hot spot: HAP1 cells, sgRNAs at XPO1 C528, KIF11 D130/A133, ERCC3 S162/Y163, NHEJ repair, 4 drug concentrations for selection; for Drug sensitivity of parental cells with a major protein variant reinstalled by CRISPR/Cas9-mediated HDR: XPO1 C528S,E529V,Q530H,K531I, KIF11 L132del, ERCC3 V166_K167insL in native locus
Procedure: Cells were transfected with the Neon Electroporation System after resuspension in Buffer R. DNA plasmids expressing the spCas9 or asCpf1 endonuclease and guiding RNA were added to a concentration of 37.5 ng/μL per plasmid and electroporated at 1,400-1,475V with 3 pulses of 10 ms. Two to three days after transfection, cells were treated with the respective drug to select for resistance over 7-14 days. Colonies were imaged with an IncuCyte© ZOOM (Essen Bioscience).
For HDR, a 123-134 bases long ssDNA oligonucleotide (850 ng) was added to the electroporation mixture in addition to the respective sgRNA and spCas9 expressing plasmids. Two days after electroporation, cells were treated with respective drugs for 5 days before imaging with an IncuCyte© ZOOM (Essen Bioscience). Following imaging, the HDR-template transfected cells were grown under drug selection for an additional week before any further experiments were performed.
Cell viability assays were performed by plating 3,000 HAP1, 5,000 HCT 116 or HL-60 cells in 96-well plates containing DMSO or a dilution of the test compound. Cells were incubated for 72 hours at 37° C. and 5% CO2. Cell viability was then assessed with the CellTiter 96® AQueous Non-Radioactive Cell Proliferation Assay (Promega) and colorimetric signals were measured with a Safire2™ (TECAN). Assays were performed in triplicate and each experiment was repeated at least once. Obtained values were adjusted with the background signal and divided by the DMSO control. Relative data values were then visualized and analyzed using a log-based 4 parameter model (GraphPad Prism).
For single guide drug resistance validation assays, 125.000 cells were transfected with Cas9 and the individual sgRNAs using the Neon Electroporation system as described above and plated into 6-well plates. Cells were treated 2-3 days after transfection with the respective compound for a period of 5-7 days, the medium was regularly refreshed and dead cells were washed away before imaging confluency using a live cell analysis system (Essen Bioscience, IncuCyte ZOOM®).

[1] = tested on: HAP1 cells stably expressing spCas9 or asCpf1; assay: CRISPR mutagenesis scanning drug-target identification screen with tiling sgRNA/crRNA libraries; assay type: cell-based, human; conditions: 30 nM bortezomib, 300 nM KPT-9274 or 2 μM selinexor for 2 weeks
Procedure: FastQ files obtained after MiSeq sequencing were demultiplexed with the MiSeq Reporter software (Illumina). Demultiplexed and paired reads were trimmed, filtered and then aligned to the reference amplicon in Geneious (v9, Biomatters). To obtain haplotypes present in drug-resistant samples, bam files were analyzed with the CrispRVariants package run in RStudio by defining a 35-50 bp spanning region across the endonuclease cut site, as defined by pre-analysis of localized variants within Geneious. For this purpose, the CrispRVariants “readtotarget” input was run with parameters “upstream.snv” (30) and “downstream.snv” (15) on corresponding paired end sequencing reads to allow for haplotype determination. Haplotype nucleotide sequences were extracted with a small script. Nucleotide sequences were then visualized and mapped to the reference in Geneious v9 (Biomatters) and amino acid variants were determined. For visualization of the spectra of single nucleotide variants, NGS reads were aligned to the reference gene. Nucleotide occurrence frequencies were then determined in R on the aligned NGS reads using the deep SNV Bioconductor package. Sequences containing sgRNA/crRNAs from the lentiviral screens were trimmed from adapter sequences. Individual sgRNA/crRNA sequencing reads were then aligned to the pLCKO-U6-sgRNA vector within Geneious, counted with MaGeCK^18 and visualized in GraphPad Prism.
HAP1 cells stably expressing spCas9 or asCpf1 were resuspended in supplemented IMDM containing 8 μg/mL polybrene and transduced with lentiviral particles containing the desired sgRNA/crRNAs at a MOI of 0.25 (coverage of 5,000× per sgRNA for spCas9) or 0.35 (coverage of 15,000× per crRNA for asCpf1) by spinfection in 12-well plates. The next day cells were transferred to T150 cell flasks and selected with 1 μg/mL puromycin. Then 4 million (ispinesib/selinexor) or 10 million (KPT-9274/bortezomib) cells were harvested for DNA extraction and the remaining cells were treated for a period of 2 weeks with 8 nM ispinesib, 30 nM bortezomib, 300 nM KPT-9274 or 2 μM selinexor. […]

SMILES | Drug sensitivity of HDR-edited cells carrying NAMPT mutations (HAP1 cells) | Drug sensitivity of the original KPT-9274 resistant cell pool (HAP1 cells; cell pool surviving the library D mutagenesis screen with KPT-9274, compared to wild-type) | Drug sensitivity of surviving colonies after tiling library transduction and drug selection (HAP1 cells) | Target gene identified by enriched guide RNAs and resistance mutations [1] | Drug sensitivity of colonies after Cas9/sgRNA targeting of the resistance hot spot (HAP1 cells) | Drug sensitivity of parental cells with a major protein variant reinstalled by CRISPR/Cas9-mediated HDR (HAP1 cells) | Drug sensitivity of colonies after AsCpf1 tiling crRNA library and drug selection (HAP1 cells; HAP1 AsCpf1 cells, 10 genes, 1,100 crRNAs, selinexor 2 μM)
O=C(/C=C/c1cccnc1)NCCCCC1CCN(C(=O)c2ccccc2)CC1 [FK866] | cross-resistant | cross-resistant | – | – | – | – | –
Nc1ccc(/C=C/C(=O)NCc2cc3cc(-c4ccc(C(=O)N5CCC(F)(F)CC5)cc4)cc(-c4ccc(F)cc4)c3o2)cn1 [KPT-9274] | resistant | – | resistant | NAMPT | – | – | –
CC(C)C[C@H](NC(=O)[C@H](Cc1ccccc1)NC(=O)c1cnccn1)B(O)O [bortezomib] | – | – | resistant | PSMB5 | – | – | –
Cc1ccc(C(=O)N(CCCN)[C@@H](c2nc3cc(Cl)ccc3c(=O)n2Cc2ccccc2)C(C)C)cc1 [ispinesib] | – | – | – | – | resistant | resistant | –
O=C(/C=C\n1cnc(-c2cc(C(F)(F)F)cc(C(F)(F)F)c2)n1)NNc1cnccn1 [selinexor] | – | – | – | XPO1 | resistant | resistant | resistant
CC(C)[C@]12O[C@H]1[C@@H]1O[C@]13[C@]1(O[C@H]1C[C@H]1C4=C(CC[C@@]13C)C(=O)OC4)[C@@H]2O [triptolide] | – | – | – | – | resistant | resistant | –
